Columns and labels:
[1] = system: A549-ACE2 infected with SARS-CoV-2; test: SARS-CoV-2 infection rate relative to DMSO; higher = more infection; conditions: 24 h
Calu-3 [2] = test: drug sensitivity score (DSS) for viability; higher = more toxic; extreme values may be limits of the assay; conditions: 72 h
HepG2 [3] = test: as above; conditions: 72 h
U2OS [4] = test: as above; conditions: 72 h
Caco-2 [5] = test: as above; conditions: 72 h
Vero E6 [6] = test: as above; conditions: 72 h
[7] = system: A549-ACE2 infected with SARS-CoV-2; test: cell count relative to DMSO; higher = less toxic; conditions: 24 h
[8] = system: A549-ACE2 infected with SARS-CoV-2; test: morphology score (similarity to uninfected cells); higher = more like uninfected cells; conditions: 24 h
A549-ACE2 [9] = test: drug-induced phospholipidosis relative to tamoxifen; higher = more phospholipidosis
Calu-3 [10] = test: relative viability EC50 (midpoint between 100% and the lowest measured viability); higher = less toxic; conditions: 72 h
Calu-3 [11] = test: cell viability relative to DMSO; higher = less toxic; conditions: 72 h
HepG2 [12] = test: as above; conditions: 72 h
U2OS [13] = test: as above; conditions: 72 h
Caco-2 [14] = test: as above; conditions: 72 h
Vero E6 [15] = test: as above; conditions: 72 h
HepG2 [16] = test: relative viability EC50 (midpoint between 100% and the lowest measured viability); higher = less toxic; conditions: 72 h
U2OS [17] = test: as above; conditions: 72 h
Caco-2 [18] = test: as above; conditions: 72 h
Vero E6 [19] = test: as above; conditions: 72 h
A549-ACE2 [20] = test: phospholipidosis EC50; higher = less potent phospholipidosis inducer

C[C@@H]1COCCN1c1cc(=O)n2c(n1)N(Cc1cncc(Cl)c1)[C@H](C(F)(F)F)CC2 [SAR405]
Conditions | SARS-CoV-2 infection rate, [1] [%] | cell count, [7] [%] | cell viability, Caco-2 [14] [%] | cell viability, Calu-3 [11] [%] | cell viability, HepG2 [12] [%] | cell viability, U2OS [13] [%] | cell viability, Vero E6 [15] [%] | morphology score, [8]
1 nM | – | – | 84.5 | 99.7 | 98.1 | 97.4 | 105 | –
10 nM | – | – | 91.1 | 97.3 | 105 | 96.8 | 108 | –
0.1 µM | 94 | 105 | – | – | – | – | – | 0.11
100 nM | – | – | 80.6 | 109 | 101 | 99.2 | 104 | –
0.3 µM | 88 | 102 | – | – | – | – | – | 0.09
1 µM | 58 | 114 | – | – | – | – | – | 0.48
1000 nM | – | – | 59.7 | 104 | 76.9 | 96.3 | 96.9 | –
3 µM | 31 | 104 | – | – | – | – | – | 0.5
10000 nM | – | – | 76.3 | 88.6 | 55.5 | 68.9 | 63.8 | –

Conditions | drug sensitivity score | relative viability EC50 [nM]
Caco-2 [5] | 8.1 | –
Calu-3 [2] | 0 | –
Calu-3 [10] | – | > 10000
HepG2 [3] | 5.2 | –
U2OS [4] | 2 | –
Vero E6 [6] | 2.2 | –

drug-induced phospholipidosis [%], A549-ACE2 [9]
Conditions | 0.3 µM | 0.833333 µM | 3.33333 µM | 6.66667 µM | 10 µM | 30 µM
24 h | -2.02 | -6.84 | 10.5 | 23.4 | 28.8 | 39.3
48 h | 1.08 | -10.5 | 7.2 | 36.3 | – | –
72 h | 3.73 | -7.79 | 5.27 | – | – | –

Cc1ccc(S(=O)(=O)/C=C/C#N)cc1 [BAY-11-7082]
Conditions | SARS-CoV-2 infection rate, [1] [%] | cell count, [7] [%] | cell viability, Caco-2 [14] [%] | cell viability, Calu-3 [11] [%] | cell viability, HepG2 [12] [%] | cell viability, U2OS [13] [%] | cell viability, Vero E6 [15] [%] | morphology score, [8]
1 nM | – | – | 92.8 | 104 | 94.2 | 97.2 | 95.5 | –
10 nM | – | – | 90.5 | 101 | 96.9 | 98.7 | 94.4 | –
0.1 µM | 106 | 101 | – | – | – | – | – | 0
100 nM | – | – | 95.4 | 110 | 101 | 98.5 | 99.7 | –
0.3 µM | 99 | 98 | – | – | – | – | – | -0.16
1 µM | 108 | 95 | – | – | – | – | – | -0.29
1000 nM | – | – | 97.7 | 107 | 89.7 | 97.2 | 92.6 | –
3 µM | 107 | 84 | – | – | – | – | – | -0.27
10000 nM | – | – | 27 | 52.2 | 0 | 0.1 | 12.9 | –

Conditions | drug sensitivity score | relative viability EC50 [nM]
Caco-2 [5] | 4.3 | –
Caco-2 [18] | – | 2940
Calu-3 [2] | 2 | –
HepG2 [3] | 7.2 | –
HepG2 [16] | – | 2310
U2OS [4] | 5.9 | –
U2OS [17] | – | 2960
Vero E6 [6] | 6 | –
Vero E6 [19] | – | 2470

drug-induced phospholipidosis [%], A549-ACE2 [9]
Conditions | 0.3 µM | 0.833333 µM | 3.33333 µM | 6.66667 µM | 10 µM
24 h | 1.81 | 0.62 | 1.15 | 1.47 | 1.45
48 h | 2.31 | 0.11 | -1.24 | 0.67 | 2.43
72 h | 3.69 | -0.813 | -2.01 | -1.91 | -1.18

CNCc1ccc(-c2cc(-c3nc(-c4ccc(S(=O)(=O)C(C)C)cc4)cnc3N)on2)cc1 [VE-822]
Conditions | SARS-CoV-2 infection rate [%] | cell count [%] | cell viability [%] | morphology score | phospholipidosis EC50 [nM]
A549-ACE2 [20], 24 h | – | – | – | – | 1160
A549-ACE2 [20], 48 h | – | – | – | – | 3020
A549-ACE2 [20], 72 h | – | – | – | – | 2970
Caco-2 [14], 1 nM | – | – | 104 | – | –
Caco-2 [14], 10 nM | – | – | 103 | – | –
Caco-2 [14], 100 nM | – | – | 103 | – | –
Caco-2 [14], 1000 nM | – | – | 92.8 | – | –
Caco-2 [14], 10000 nM | – | – | 49.3 | – | –
Calu-3 [11], 1 nM | – | – | 96.5 | – | –
Calu-3 [11], 10 nM | – | – | 93.2 | – | –
Calu-3 [11], 100 nM | – | – | 93.4 | – | –
Calu-3 [11], 1000 nM | – | – | 106 | – | –
Calu-3 [11], 10000 nM | – | – | 90 | – | –
HepG2 [12], 1 nM | – | – | 111 | – | –
HepG2 [12], 10 nM | – | – | 99 | – | –
HepG2 [12], 100 nM | – | – | 94 | – | –
HepG2 [12], 1000 nM | – | – | 53.3 | – | –
HepG2 [12], 10000 nM | – | – | 19.1 | – | –
U2OS [13], 1 nM | – | – | 101 | – | –
U2OS [13], 10 nM | – | – | 104 | – | –
U2OS [13], 100 nM | – | – | 96 | – | –
U2OS [13], 1000 nM | – | – | 89.9 | – | –
U2OS [13], 10000 nM | – | – | 67.4 | – | –
Vero E6 [15], 1 nM | – | – | 94.8 | – | –
Vero E6 [15], 10 nM | – | – | 95.7 | – | –
Vero E6 [15], 100 nM | – | – | 97.2 | – | –
Vero E6 [15], 1000 nM | – | – | 85.1 | – | –
Vero E6 [15], 10000 nM | – | – | 2.1 | – | –
[1], 0.1 µM | 89 | – | – | – | –
[1], 0.3 µM | 89 | – | – | – | –
[1], 1 µM | 51 | – | – | – | –
[1], 3 µM | 25 | – | – | – | –
[7], 0.1 µM | – | 107 | – | – | –
[7], 0.3 µM | – | 110 | – | – | –
[7], 1 µM | – | 128 | – | – | –
[7], 3 µM | – | 118 | – | – | –
[8], 0.1 µM | – | – | – | 0.32 | –
[8], 0.3 µM | – | – | – | 0.31 | –
[8], 1 µM | – | – | – | 0.57 | –
[8], 3 µM | – | – | – | 0.55 | –

Conditions | drug sensitivity score | relative viability EC50 [nM]
Caco-2 [5] | 3.9 | –
Caco-2 [18] | – | 2040
Calu-3 [2] | 0 | –
Calu-3 [10] | – | > 10000
HepG2 [3] | 10.1 | –
HepG2 [16] | – | 779
U2OS [4] | 2.6 | –
Vero E6 [6] | 7.9 | –
Vero E6 [19] | – | 1970

drug-induced phospholipidosis [%], A549-ACE2 [9]
Conditions | 0.3 µM | 0.833333 µM | 3.33333 µM | 6.66667 µM | 10 µM | 30 µM
24 h | 13.9 | 27.3 | 86.2 | 113 | 119 | 42.3
48 h | 14.2 | 28 | 89.1 | 124 | 148 | 62.7
72 h | 16.7 | 20.1 | 102 | 143 | 163 | 63.3

Reference: the supplement of paper PMC13380429
